# Measured values taken from PubChem BioAssay (NCI).
#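 GI50 = concentration required for 50% inhibition of growth. TGI denotes the concentration required for complete inhibition of growth.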
# Assays:
# Test in all cases: NCI-60 cell line screen, 384-well format
# [1] = system: CCRF-CEM leukemia
# [2] = system: NCI-H522 lung
# [3] = system: HOP-62 NSCLC
# [4] = system: TK-10 renal
# [5] = system: SK-MEL-5 melanoma
# [6] = system: 786-0 renal
# [7] = system: CAKI-1 renal
# [8] = system: T-47D breast
# [9] = system: IGROV1 ovarian
# [10] = system: MOLT-4 leukemia
# [11] = system: KM12 colon
# [12] = system: HCC-2998 colon
# [13] = system: SN12C renal
# [14] = system: SK-OV-3 ovarian
# [15] = system: UO-31 renal
# [16] = system: HCT-116 colon
# [17] = system: HOP-92 NSCLC
# [18] = system: SK-MEL-28 melanoma
# [19] = system: LOX IMVI melanoma
# [20] = system: SW-620 colon
# [21] = system: HL-60(TB) leukemia
# [22] = system: RXF 393 renal
# [23] = system: OVCAR-3 ovarian
# [24] = system: K-562 leukemia
# [25] = system: OVCAR-8 ovarian
# [26] = system: MCF7 breast
# [27] = system: NCI-H226 lung
# [28] = system: OVCAR-5 ovarian
# [29] = system: PC-3 prostate
# [30] = system: NCI-H460 NSCLC
# [31] = system: EKVX NSCLC
# [32] = system: SF-295 CNS
# [33] = system: SNB-19 CNS
# [34] = system: A549 NSCLC
# [35] = system: MDA-MB-468 breast
# [36] = system: HCT-15 colon
# [37] = system: U251 glioblastoma
# [38] = system: RPMI-8226 leukemia
# [39] = system: DU-145 prostate
# [40] = system: COLO 205 colon
# [41] = system: OVCAR-4 ovarian
# [42] = system: HT29 colon
# [43] = system: M14 melanoma
# [44] = system: UACC-257 melanoma
# [45] = system: NCI-H23 lung
# [46] = system: UACC-62 melanoma
# [47] = system: BT-549 breast
# [48] = system: NCI/ADR-RES ovarian
# [49] = system: MDA-MB-435 melanoma
# [50] = system: ACHN renal
# [51] = system: MALME-3M melanoma
# [52] = system: HS 578T breast
# [53] = system: SF-539 CNS
# [54] = system: A498 renal
# [55] = system: SF-268 CNS
# [56] = system: SNB-75 CNS
# [57] = system: NCI-H322M lung
# [58] = system: SK-MEL-2 melanoma
smiles,measurement,setting,value
Cc1cc(-c2nc(-c3ccc(OC(F)(F)F)cc3)no2)nn1Cc1ccnc(N2CCN(C3CC3)CC2)c1,GI50,[1],< 0.01 µM
same,TGI,[1],< 0.01 µM
same,GI50,[2],< 0.01 µM
same,TGI,[2],> 100 µM
same,GI50,[3],< 0.01 µM
same,TGI,[3],20.7 µM
same,GI50,[4],40.9 µM
same,TGI,[4],> 100 µM
same,GI50,[5],< 0.01 µM
same,TGI,[5],2.24 µM
same,GI50,[6],4.88 µM
same,TGI,[6],> 100 µM
same,GI50,[7],14.9 µM
same,TGI,[7],> 100 µM
same,GI50,[8],< 0.01 µM
same,TGI,[8],1.5 µM
same,GI50,[9],9.15 µM
same,TGI,[9],> 100 µM
same,GI50,[10],< 0.01 µM
same,TGI,[10],7.05 µM
same,GI50,[11],5.2 µM
same,TGI,[11],70.4 µM
same,GI50,[12],4.19 µM
same,TGI,[12],20.2 µM
same,GI50,[13],7.01 µM
same,TGI,[13],> 100 µM
same,GI50,[14],< 0.01 µM
same,TGI,[14],> 100 µM
same,GI50,[15],15.7 µM
same,TGI,[15],> 100 µM
same,GI50,[16],< 0.01 µM
same,TGI,[16],> 100 µM
same,GI50,[17],3.45 µM
same,TGI,[17],> 100 µM
same,GI50,[18],12.9 µM
same,TGI,[18],28.7 µM
same,GI50,[19],< 0.01 µM
same,TGI,[19],14.1 µM
same,GI50,[20],12.1 µM
same,TGI,[20],89.7 µM
same,GI50,[21],1.73 µM
same,TGI,[21],11 µM
same,GI50,[22],< 0.01 µM
same,TGI,[22],< 0.01 µM
same,GI50,[23],6.51 µM
same,TGI,[23],> 100 µM
same,GI50,[24],< 0.01 µM
same,TGI,[24],44.9 µM
same,GI50,[25],< 0.01 µM
same,TGI,[25],> 100 µM
same,GI50,[26],0.47 µM
same,TGI,[26],15.4 µM
same,GI50,[27],4.01 µM
same,TGI,[27],> 100 µM
same,GI50,[28],15.7 µM
same,TGI,[28],86.1 µM
same,GI50,[29],2.99 µM
same,TGI,[29],66.9 µM
same,GI50,[30],< 0.01 µM
same,TGI,[30],< 0.01 µM
same,GI50,[31],< 0.01 µM
same,TGI,[31],62.6 µM
same,GI50,[32],> 100 µM
same,TGI,[32],> 100 µM
same,GI50,[33],10.9 µM
same,TGI,[33],> 100 µM
same,GI50,[34],< 0.01 µM
same,TGI,[34],> 100 µM
same,GI50,[35],< 0.01 µM
same,TGI,[35],< 0.01 µM
same,GI50,[36],1.44 µM
same,TGI,[36],18.8 µM
same,GI50,[37],1.83 µM
same,TGI,[37],> 100 µM
same,GI50,[38],< 0.01 µM
same,TGI,[38],> 100 µM
same,GI50,[39],20.3 µM
same,TGI,[39],> 100 µM
same,GI50,[40],5.77 µM
same,TGI,[40],> 100 µM
same,GI50,[41],28.7 µM
same,TGI,[41],> 100 µM
same,GI50,[42],2.43 µM
same,TGI,[42],12.3 µM
same,GI50,[43],2.13 µM
same,TGI,[43],7.15 µM
same,GI50,[44],< 0.01 µM
same,TGI,[44],3.31 µM
same,GI50,[45],< 0.01 µM
same,TGI,[45],84.8 µM
same,GI50,[46],9.33 µM
same,TGI,[46],21.8 µM
same,GI50,[47],2.06 µM
same,TGI,[47],35.9 µM
same,GI50,[48],< 0.01 µM
same,TGI,[48],> 100 µM
same,GI50,[49],5.96 µM
same,TGI,[49],> 100 µM
same,GI50,[50],12.6 µM
same,TGI,[50],> 100 µM
same,GI50,[51],4.82 µM
same,TGI,[51],18.3 µM
O=C1c2ccccc2C(=O)C(Cl)C1Cl (stereo not given),GI50,[1],1.49 µM
same,TGI,[1],2.84 µM
same,GI50,[2],1.5 µM
same,TGI,[2],2.84 µM
same,GI50,[3],3.33 µM
same,TGI,[3],11.3 µM
same,GI50,[4],1.58 µM
same,TGI,[4],2.93 µM
same,GI50,[5],2.31 µM
same,TGI,[5],9.5 µM
same,GI50,[6],1.87 µM
same,TGI,[6],4.85 µM
same,GI50,[7],1.66 µM
same,TGI,[7],3.03 µM
same,GI50,[52],12.7 µM
same,TGI,[52],25.3 µM
same,GI50,[9],1.33 µM
same,TGI,[9],4.33 µM
same,GI50,[10],1.36 µM
same,TGI,[10],2.65 µM
same,GI50,[11],13.7 µM
same,TGI,[11],26.8 µM
same,GI50,[12],14.1 µM
same,TGI,[12],27.2 µM
same,GI50,[13],1.81 µM
same,TGI,[13],3.46 µM
same,GI50,[14],13.2 µM
same,TGI,[14],26.1 µM
same,GI50,[16],1.62 µM
same,TGI,[16],3.01 µM
same,GI50,[17],1.64 µM
same,TGI,[17],3 µM
same,GI50,[53],1.69 µM
same,TGI,[53],3.08 µM
same,GI50,[18],3.24 µM
same,TGI,[18],9.55 µM
same,GI50,[54],17.7 µM
same,TGI,[54],31.6 µM
same,GI50,[19],0.0967 µM
same,TGI,[19],17.4 µM
same,GI50,[20],1.63 µM
same,TGI,[20],3.02 µM
same,GI50,[21],0.243 µM
same,TGI,[21],0.743 µM
same,GI50,[22],1.63 µM
same,TGI,[22],3 µM
same,GI50,[23],1.6 µM
same,TGI,[23],2.95 µM
same,GI50,[25],1.67 µM
same,TGI,[25],3.07 µM
same,GI50,[26],1.39 µM
same,TGI,[26],2.72 µM
same,GI50,[27],1.41 µM
same,TGI,[27],2.77 µM
same,GI50,[55],13.9 µM
same,TGI,[55],27 µM
same,GI50,[29],1.73 µM
same,TGI,[29],3.59 µM
same,GI50,[56],7.16 µM
same,TGI,[56],20.5 µM
same,GI50,[57],16.3 µM
same,TGI,[57],30 µM
same,GI50,[30],14 µM
same,TGI,[30],27.2 µM
same,GI50,[31],7.02 µM
same,TGI,[31],20.4 µM
same,GI50,[32],15.2 µM
same,TGI,[32],28.5 µM
same,GI50,[33],14.1 µM
same,TGI,[33],27.2 µM
same,GI50,[34],15.1 µM
same,TGI,[34],28.7 µM
same,GI50,[35],1.53 µM
same,TGI,[35],2.87 µM
same,GI50,[36],1.42 µM
same,TGI,[36],2.75 µM
same,GI50,[37],16.2 µM
same,TGI,[37],30 µM
same,GI50,[38],1.55 µM
same,TGI,[38],2.9 µM
same,GI50,[58],1.91 µM
same,TGI,[58],3.32 µM
same,GI50,[39],1.15 µM
same,TGI,[39],2.55 µM
same,GI50,[40],1.84 µM
same,TGI,[40],3.26 µM
same,GI50,[41],1.21 µM
same,TGI,[41],2.46 µM
same,GI50,[42],2.78 µM
same,TGI,[42],8.03 µM
same,GI50,[43],1.89 µM
same,TGI,[43],3.39 µM
same,GI50,[44],1.94 µM
same,TGI,[44],3.36 µM
same,GI50,[45],1.76 µM
same,TGI,[45],3.92 µM
same,GI50,[46],1.37 µM
same,TGI,[46],2.85 µM
same,GI50,[47],1.56 µM
same,TGI,[47],2.91 µM
same,GI50,[48],11.2 µM
same,TGI,[48],23.3 µM
same,GI50,[49],1.83 µM
same,TGI,[49],3.4 µM
same,GI50,[50],1.38 µM
same,TGI,[50],2.68 µM
same,GI50,[51],1.76 µM
same,TGI,[51],3.15 µM
